We go through 21 compounds from US9586961B2, “Homopiperazine derivatives as protein tyrosine kinase inhibitors and pharmaceutical use thereof” (LEO PHARMA A/S, priority 2010, dated 2017).

What all share (format): biochemical
The target of one test is T1, JAK1 (Homo sapiens, UniProt P23458).
T1 construct: JAK1 (aa 850-1154) and TYK2 (aa 871-1187) are expressed with an N-terminally fused GST-tag; GST (N); purchased Carna Biosciences, Inc; host or cells: baculovirus expression system
The experiment in a line: JAK1 kinase assay (HTRF, inhibition of phosphorylation of a synthetic peptide). As to conditions: catalytic domain aa 850-1154, GST-tag; 7 μM ATP (Km); read-out: JAK1 kinase inhibitory activity (EC50). Here is the method:
(§1) JAK1, JAK2, JAK3 and TYK2 Kinase Assays:
(§2) Human baculovirus-expressed JAK1, 2, 3 and TYK2 were purchased from Carna Biosciences, Inc. All four purified enzymes contain only the catalytic domain. JAK1 (aa 850-1154) and TYK2 (aa 871-1187) are expressed with an N-terminally fused GST-tag, and JAK2 and JAK3 with an N-terminally fused His-tag. Inhibition of phosphorylation of a synthetic peptide was measured in an HTRF-based assay using the TK substrate-Biotin from the CisbioHTRFKinEASE TK kit. First, 2 μl of TK solution (TK substrate-biotin in kinase buffer [1× enzymatic buffer from HTRFKinEASE TK kit, 1 mM DTT]) is added to a plate containing 1 μl prediluted compound (final assay concentration DMSO: 0.75%). Then, 5 μl kinase-ATP mix (prepared in kinase buffer) is added to the wells and the plates are incubated at RT for 20-30 min. For all four kinases a concentration of ATP that corresponded to the Km for ATP was used. The final concentrations of buffers, substrate, kinase and ATP were: JAK1: 50 mMHepes buffer pH 7.0, 0.01% BSA, 10 mM MgCl2, 1 mM DTT, 7 μM ATP, 50 nMSEB, 1 μM TK Substrate-Biotin and 5 ng JAK1; JAK2: 50 mM Hepes buffer pH 7.0, 0.01% BSA, 5 mM MgCl2, 1 mM DTT, 4 μM ATP, 1 μM TK Substrate-Biotin and 0.1 ng JAK2; JAK3: 50 mMHepes buffer pH 7.0, 0.01% BSA, 5 mM MgCl2, 1 mM DTT, 2 μM ATP, 1 μM TK Substrate-Biotin and 0.3 ng JAK3; TYK2: 50 mMHepes buffer pH 7.0, 0.01% BSA, 5 mM MgCl2, 1 mM DTT, 13 μM ATP, 50 nMSEB, 1 μM TK Substrate-Biotin and 0.8 ng TYK2. Thereafter, the kinase reaction is stopped by adding 4 μl detection mix (final concentrations: 50 mM Hepes buffer pH 7.0, 0.01% BSA, 0.8 M KF, 20 mM EDTA, 42 nM Streptavidin-XL665 and 1:400 STKAbCryptate) and the plates are incubated overnight in the dark. The HTRF signal is read using an Envision plate reader.
Background: Time-resolved FRET reads energy transfer from a long-lived donor to a nearby acceptor.

A further test concerns the target T2, JAK3 (Homo sapiens, UniProt P52333).
T2 construct: All four purified enzymes contain only the catalytic domain; His (N); purchased Carna Biosciences, Inc; host or cells: baculovirus expression system
The test can be described thus: JAK3 kinase assay (HTRF, inhibition of phosphorylation of a synthetic peptide). The settings on record: catalytic domain, His-tag; 2 μM ATP (Km); read-out: JAK3 kinase inhibitory activity (EC50). As to the method:
as §1, §2

The next test addresses T3, JAK2 (Homo sapiens, UniProt O60674).
T3 construct: All four purified enzymes contain only the catalytic domain; His (N); purchased Carna Biosciences, Inc; host or cells: baculovirus expression system
The experiment in a line: JAK2 kinase assay (HTRF, inhibition of phosphorylation of a synthetic peptide). The settings on record: catalytic domain, His-tag; 4 μM ATP (Km); read-out: JAK2 kinase inhibitory activity (EC50). Here is the method:
as §1, §2

pEC50: −log10 of the molar value.

T2 sequence (P52333 822-1111 limits assumed): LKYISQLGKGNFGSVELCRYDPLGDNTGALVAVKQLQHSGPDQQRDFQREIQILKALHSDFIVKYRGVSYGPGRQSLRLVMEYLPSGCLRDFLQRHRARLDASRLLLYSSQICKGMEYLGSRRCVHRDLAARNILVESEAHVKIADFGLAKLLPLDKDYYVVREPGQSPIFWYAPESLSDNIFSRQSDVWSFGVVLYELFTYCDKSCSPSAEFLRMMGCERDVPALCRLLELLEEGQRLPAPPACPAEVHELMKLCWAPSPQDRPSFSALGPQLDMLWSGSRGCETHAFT
T3 sequence (O60674 849-1124 limits assumed): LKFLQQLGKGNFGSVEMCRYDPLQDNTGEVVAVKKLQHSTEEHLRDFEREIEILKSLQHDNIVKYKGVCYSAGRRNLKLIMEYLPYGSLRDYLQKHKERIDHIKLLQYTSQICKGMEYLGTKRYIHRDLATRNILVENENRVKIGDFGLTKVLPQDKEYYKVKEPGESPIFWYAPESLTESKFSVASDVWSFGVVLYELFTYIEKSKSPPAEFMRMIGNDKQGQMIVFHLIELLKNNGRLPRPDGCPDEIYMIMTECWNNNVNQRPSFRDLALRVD
T1 sequence (P23458 850-1154): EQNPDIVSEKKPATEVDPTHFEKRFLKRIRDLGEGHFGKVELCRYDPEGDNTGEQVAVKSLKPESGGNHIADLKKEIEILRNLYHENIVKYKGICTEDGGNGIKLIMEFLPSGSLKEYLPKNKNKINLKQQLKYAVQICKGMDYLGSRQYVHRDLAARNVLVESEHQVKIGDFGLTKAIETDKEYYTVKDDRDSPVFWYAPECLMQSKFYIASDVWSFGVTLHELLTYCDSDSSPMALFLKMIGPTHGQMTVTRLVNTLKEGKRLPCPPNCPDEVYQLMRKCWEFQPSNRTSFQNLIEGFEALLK

As to `Cc1ccc(S(=O)(=O)N2CCN(c3ncnc4[nH]ccc34)CC3(CC3)C2)cc1` [Example 96, 4-[8-(p-tolylsulfonyl)-5,8-diazaspiro[2.6]nonan-5-yl]-7H-pyrrolo[2,3-d]pyrimidine], the figures for the pEC50 at JAK1, on JAK3 and on JAK2 were 6.00 to 7.00, less than 6.00 and 6.00 to 7.00, respectively.

On to `Cc1oncc1C(=O)N1CCN(c2ncnc3[nH]ccc23)CC2(CC2)C1` [Example 108, (5-methylisoxazol-4-yl)-[5-(7H-pyrrolo[2,3-d]pyrimidin-4-yl)-5,8-diazaspiro[2.6]nonan-8-yl]methanone], for which the pEC50 at JAK1, on JAK3 and on JAK2 was 6.00 to 7.00 each time.

On to `Cc1ccccc1C(=O)N1CCN(c2ncnc3[nH]ccc23)CC2(CC2)C1` [Example 109, o-tolyl-[5-(7H-pyrrolo[2,3-d]pyrimidin-4-yl)-5,8-diazaspiro[2.6]nonan-8-yl]methanone], for which the negative logarithm of the EC50 (pEC50) (usually the EC50 on a negative log10 scale, so that one unit is a factor of ten) was less than 6.00 at JAK1, less than 6.00 on JAK3 and 6.00 to 7.00 at JAK2.

As to `Cc1ccccc1C(=O)N1CCCN(c2ncnc3[nH]ccc23)CC12CC2` [Example 110, o-tolyl-[5-(7H-pyrrolo[2,3-d]pyrimidin-4-yl)-5,9-diazaspiro[2.6]nonan-9-yl]methanone], the pEC50 at JAK1 is 6.00 to 7.00; on JAK3, less than 6.00; at JAK2 it was 6.00 to 7.00.

In the case of `O=C(c1ccccc1F)N1CCN(c2ncnc3[nH]ccc23)CC2(CC2)C1` [Example 111, (2-fluorophenyl)-[5-(7H-pyrrolo[2,3-d]pyrimidin-4-yl)-5,8-diazaspiro[2.6]nonan-8-yl]methanone], the pEC50 was 6.00 to 7.00 on JAK1, less than 6.00 at JAK3 and more than 7.00 on JAK2.

For the compound `O=C(c1ccccc1F)N1CCCN(c2ncnc3[nH]ccc23)CC12CC2` [Example 112, (2-fluorophenyl)-[5-(7H-pyrrolo[2,3-d]pyrimidin-4-yl)-5,9-diazaspiro[2.6]nonan-9-yl]methanone], the negative logarithm of the EC50 (pEC50) on JAK1 was 6.00 to 7.00; on JAK3, 6.00 to 7.00; at JAK2 it was more than 7.00.

As to `O=C(c1ccc(F)cc1)N1CCN(c2ncnc3[nH]ccc23)CC2(CC2)C1` [Example 113, (4-fluorophenyl)-[5-(7H-pyrrolo[2,3-d]pyrimidin-4-yl)-5,8-diazaspiro[2.6]nonan-8-yl]methanone], the pEC50 on JAK1, at JAK3 and on JAK2 was 6.00 to 7.00 throughout.

`O=C(c1ccc(F)cc1)N1CCCN(c2ncnc3[nH]ccc23)CC12CC2` [Example 114, (4-fluorophenyl)-[5-(7H-pyrrolo[2,3-d]pyrimidin-4-yl)-5,9-diazaspiro[2.6]nonan-9-yl]methanone]: the pEC50 at JAK1 was 6.00 to 7.00; at JAK3, 6.00 to 7.00; on JAK2, more than 7.00.

For `N#Cc1cccc(OCC(=O)N2CCN(c3ncnc4[nH]ccc34)CC3(CC3)C2)c1` [Example 118, 3-[2-oxo-2-[5-(7H-pyrrolo[2,3-d]pyrimidin-4-yl)-5,8-diazaspiro[2.6]nonan-8-yl]ethoxy]benzonitrile], the pEC50 on JAK1 is 6.00 to 7.00; on JAK3, 6.00 to 7.00; at JAK2, more than 7.00.

Regarding `O=C(c1cnon1)N1CCCN(c2ncnc3[nH]ccc23)CC12CC2` [Example 121, 1,2,5-oxadiazol-3-yl-[5-(7H-pyrrolo[2,3-d]pyrimidin-4-yl)-5,9-diazaspiro[2.6]nonan-9-yl]methanone], the pEC50 at JAK1 is 6.00 to 7.00; on JAK3 it was more than 7.00; at JAK2, 6.00 to 7.00.

In the case of `Cc1cc(C(=O)N2CCCN(c3ncnc4[nH]ccc34)CC23CC3)on1` [Example 122, (3-methylisoxazol-5-yl)-[5-(7H-pyrrolo[2,3-d]pyrimidin-4-yl)-5,9-diazaspiro[2.6]nonan-9-yl]methanone], the pEC50 on JAK1 is more than 7.00; at JAK3 it was 6.00 to 7.00; at JAK2 it was more than 7.00.

Turning to `CCCC1=NOC(C(=O)N2CCCN(c3ncnc4[nH]ccc34)CC23CC3)C1` (stereo not drawn) [Example 124, (3-propyl-4,5-dihydroisoxazol-5-yl)-[5-(7H-pyrrolo[2,3-d]pyrimidin-4-yl)-5,9-diazaspiro[2.6]nonan-9-yl]methanone], the pEC50 on JAK1, at JAK3 and on JAK2 was 6.00 to 7.00 throughout.

Take `O=C(Cc1ccc(Cl)cc1)N1CCCN(c2ncnc3[nH]ccc23)CC12CC2` [Example 126, 2-(4-chlorophenyl)-1-[5-(7H-pyrrolo[2,3-d]pyrimidin-4-yl)-5,9-diazaspiro[2.6]nonan-9-yl]ethanone]: the figures for the pEC50 at JAK1, on JAK3 and on JAK2 were 6.00 to 7.00, 6.00 to 7.00 and more than 7.00, respectively.

With `O=C(c1cccnc1)N1CCN(c2ncnc3[nH]ccc23)CC2(CC2)C1` [Example 127, 3-pyridyl-[5-(7H-pyrrolo[2,3-d]pyrimidin-4-yl)-5,8-diazaspiro[2.6]nonan-8-yl]methanone], the pEC50 on JAK1 was 6.00 to 7.00; at JAK3 it was less than 6.00; at JAK2, 6.00 to 7.00.

As to `O=C(c1cccnc1)N1CCCN(c2ncnc3[nH]ccc23)CC12CC2` [Example 128, 3-pyridyl-[5-(7H-pyrrolo[2,3-d]pyrimidin-4-yl)-5,9-diazaspiro[2.6]nonan-9-yl]methanone], the figures for the negative logarithm of the EC50 (pEC50) on JAK1, at JAK3 and on JAK2 were 6.00 to 7.00, less than 6.00 and 6.00 to 7.00, respectively.

Turning to `O=C(c1ccncc1)N1CCN(c2ncnc3[nH]ccc23)CC2(CC2)C1` [Example 129, 4-pyridyl-[5-(7H-pyrrolo[2,3-d]pyrimidin-4-yl)-5,8-diazaspiro[2.6]nonan-8-yl]methanone], the pEC50 was 6.00 to 7.00 on JAK1, less than 6.00 on JAK3 and 6.00 to 7.00 at JAK2.

Turning to `O=C(c1ccncc1)N1CCCN(c2ncnc3[nH]ccc23)CC12CC2` [Example 130, 4-pyridyl-[5-(7H-pyrrolo[2,3-d]pyrimidin-4-yl)-5,9-diazaspiro[2.6]nonan-9-yl]methanone], the pEC50 was 6.00 to 7.00 on JAK1, less than 6.00 at JAK3 and 6.00 to 7.00 at JAK2.

As for `O=C(c1ccc(O)nc1)N1CCN(c2ncnc3[nH]ccc23)CC2(CC2)C1` [Example 131, (6-hydroxy-3-pyridyl)-[5-(7H-pyrrolo[2,3-d]pyrimidin-4-yl)-5,8-diazaspiro[2.6]nonan-8-yl]methanone], the pEC50 at JAK1, on JAK3 and on JAK2 was 6.00 to 7.00 each time.

In the case of `O=C(c1ccc(O)nc1)N1CCCN(c2ncnc3[nH]ccc23)CC12CC2` [Example 132, (6-hydroxy-3-pyridyl)-[5-(7H-pyrrolo[2,3-d]pyrimidin-4-yl)-5,9-diazaspiro[2.6]nonan-9-yl]methanone], the pEC50 at JAK1, at JAK3 and at JAK2 was 6.00 to 7.00 in each case.

In the case of `O=C(c1c[nH]cn1)N1CCN(c2ncnc3[nH]ccc23)CC2(CC2)C1` [Example 133, 1H-imidazol-4-yl-[5-(7H-pyrrolo[2,3-d]pyrimidin-4-yl)-5,8-diazaspiro[2.6]nonan-8-yl]methanone], the pEC50 on JAK1, on JAK3 and at JAK2 was 6.00 to 7.00 in each case.

Regarding `O=C(c1c[nH]cn1)N1CCCN(c2ncnc3[nH]ccc23)CC12CC2` [Example 134, 1H-imidazol-4-yl-[5-(7H-pyrrolo[2,3-d]pyrimidin-4-yl)-5,9-diazaspiro[2.6]nonan-9-yl]methanone], the pEC50 on JAK1, at JAK3 and on JAK2 was 6.00 to 7.00 throughout.
